Laboratory results as given in patent US20220381657A1, “METHOD FOR PREPARING BIOLOGICAL MATERIAL HAVING EXCELLENT LIGHT-TRANSMITTING PROPERTY” (RIKEN, priority 2016, published 2022).
“Also recorded” adds a separate entry of the source. Read-outs that look alike come from different tables or passages of the source.

How the values were obtained:
Serius = settings: relative fluorescence
bovine coagulated blood = assay: Decoloring screening: heme eluted from bovine coagulated blood (OD420-OD700); settings: decolorization; for 700 nm calibrated 420 nm Average: OD420 calibrated by OD700; for integrated value 500-700 nm Average: integrated absorbance 500-700 nm
[1] = for 400 nm: OD at 400 nm of the chemical
[2] = tested on: fixed brain tissue suspension; assay: 1st delipidation assay: solubilization of fixed brain tissue suspension, turbidity at 600 nm; design: species or system mice; settings: Table 1; 10 wt % chemical, fixed mouse brain suspension, 37° C. overnight; PBS = 1.000
Procedure: Specifically, brains taken out of mice were sheared with a utility knife and then were disrupted by ultrasonication. To each of the resultant suspensions, an equal volume of 8% PFA solution was added to perform fixation at 4° C. for 1 hour. The resultant mixture was centrifuged to remove the supernatant, and the fixed brain tissue was washed with PBS for 3 times. PBS was added so as to obtain 2 mL of a fixed brain tissue suspension per brain. The fixed brain tissue suspension was diluted by 3.5 folds. To 20 μL of the resultant suspension, 130 μL of each 10 wt % chemical was added and was shaken at 37° C. overnight. Thus obtained mixed solutions were subjected to absorbance (turbidity) measurement at 600 nm. It is expected that a chemical solution which reduces the turbidity of a fixed brain suspension allows reducing light scattering by solubilizing lipids, which act as a scattering factor, in the brain tissue.

mouse hemisphere = assay: Delipidation and clearing of mouse hemisphere (transmittance, phospholipid and cholesterol content)
Procedure: Subsequently, the delipidation efficiency of the series of compounds in mammalian tissue was examined. […] The transmittance of the brain tissue was measured, and then the brain tissue was washed with PBS and was disrupted. […] It was thus shown that the above basic chemicals and some neutral chemicals were better than the detergents from the viewpoint of permeability with respect to tissue. […] Subsequently, the mouse hemisphere was subjected to refractive index adjustment with CUBIC-2A. […] Accordingly, #0414 (N-butyldiethanolamine) was selected as a highly-efficient delipidation chemical.

mouse spleen = assay: Decoloring of mouse spleen (OD420 of supernatant, transmissive image); settings: 10 wt % solution, 37° C. overnight
EGFP = EGFP (Aequorea victoria, UniProt P42212, F64L/H231L/S65T); type: biochemical; settings: for retention of fluorescence of a fluorescent protein: stated in the description
Procedure: (FIG. 7). […] A mouse hemisphere was treated with use of each 10 wt % chemical solution at 37° C. for 3 days, and was washed with PBS. Subsequently, the mouse hemisphere was subjected to refractive index adjustment with CUBIC-2A.

mouse brain = assay: Swelling and clearing of delipidated mouse brain; settings: CUBIC-1 delipidated brain, shaken 3 days
[3] = Refractive index of high-concentration aqueous solution; type: physicochemical; settings: Table 3; chemical conc. 70 wt %
Text: (§1) The refractive index of an aqueous solution is commonly known to increase in a solute concentration-dependent manner, and the refractive index of a reagent per unit weight of the reagent varies among individual reagents. Accordingly, two properties are required in order to prepare a high refractive index aqueous solution: (1) an extremely high water-solubility and (2) a […] which allows achieving a high refractive index in a low-concentration aqueous solution.

[4] = 1st RI evaluation assay: refractive index at 589 nm of 10 wt % aqueous solution; type: physicochemical; settings: Table 3
Text: as §1

CCCCN(CCO)CCO [#0414, N-Butyldiethanolamine]
Fluorescence quench Average (Serius): 0.70 | 700 nm calibrated 420 nm Average (bovine coagulated blood): 1.30 | integrated value 500-700 nm Average (bovine coagulated blood): 1.45 | 400 nm [1]: 0.05 | OD400 ([1]; Table 1): 0.05 | pH (Table 1): 12.7 | pH ([…]): 12.7 | 1st delipidation assay Relative OD600 [2]: 0.261 | organ transparency (mouse hemisphere; #0414 versus #0389, basic chemicals): superiority

Cn1ccnc1 [1-methylimidazole]
mouse spleen decoloring activity (mouse spleen): equivalent decoloring activity

CCn1ccnc1 [#0938, 1-ethylimidazole]
Fluorescence quench Average (Serius): 0.80 | 700 nm calibrated 420 nm Average (bovine coagulated blood): 6.19 | integrated value 500-700 nm Average (bovine coagulated blood): 3.41 | 400 nm [1]: 0.053 | pH ([…]): 12.1 | retention of fluorescence of a fluorescent protein (EGFP): allows fluorescence of a fluorescent protein to be retained | mouse spleen decoloring activity (mouse spleen): highest

c1c[nH]cn1 [#1352, imidazole]
swelling of delipidated mouse brain (mouse brain): high-degree of swelling

CNC(=O)c1cccnc1 [#1283, N-Methyl- nicotinamide]
Fluorescence quench Average (Serius): 0.71 | 700 nm calibrated 420 nm Average (bovine coagulated blood): 2.98 | integrated value 500-700 nm Average (bovine coagulated blood): 2.81 | 400 nm [1]: 0.063 | OD400 ([1]; Table 3): 0.063 | pH (Table 3): 10.7 | pH ([…]): 10.7 | 2nd quenching assay EGFP fluorescence (EGFP; Table 3): quench free | retention of fluorescence of a fluorescent protein (EGFP): allowing retention of fluorescence of a fluorescent protein; also recorded: allows fluorescence of a fluorescent protein to be retained | RI [3]: 1.4902

CCCCC(O)CO (centres unmarked) [#1051, 1,2-Hexanediol]
OD400 ([1]; Table 1): 0.048 | pH (Table 1): 9.3 | 1st delipidation assay Relative OD600 [2]: 0.300 | degree of delipidation and clearing of mouse hemisphere (mouse hemisphere; 10 wt % chemical, 37° C., 3 days, then CUBIC-2A, compared with detergents #1035, #1455, #1460, Triton X-100): higher degrees of delipidation and clearing

CNC(=S)NC [#0637, 1,3-Dimethyl-thiourea]
OD400 ([1]; Table 3): 0.049 | pH (Table 3): 6.8 | 1st RI evaluation assay RI of 10% chemical [4]: 1.3555
